# Laboratory results as given in patent US20160250177A1, “MODIFIED DOCETAXEL LIPOSOME FORMULATIONS AND USES THEREOF” (MALLINCKRODT LLC, priority 2015, published 2016).
# Where two headings read alike, the source gives them in different places.
# Key:
# [1] = system: PC3 human prostate xenograft; details: for median survival: docetaxel
# Procedure: In another study, athymic male nude mice bearing PC3 human prostate xenograft were given two or four intravenous (IV) doses of PEGylated TD-1 liposome, Taxotere® or saline. Dosing intervals were twenty-one days for two cycles or every four days for four cycles.
# Tumor volume was measured 2-3 times per week using the Biopticon tumor imaging system and tumor volume data was analyzed to determine TGD and partial tumor regression. Survival analysis was conducted and median survival time determined.
# [2] = human, in vivo; for AUC(0-inf) / AUC/Dose / CL / Cmax/Dose / Vss: iv
# [3] = cited from earlier work
# [4] = clinical; details: human, in vivo, iv
# [5] = Tissue distribution in mice with A549 xenograft; details: for Kidney AUC of docetaxel / Liver AUC of docetaxel / Lung AUC of docetaxel / Muscle AUC of docetaxel / Spleen AUC of docetaxel / Tumor AUC of docetaxel: single IV
# Procedure: The plasma pharmacokinetics and distribution were studied in female athymic nude mice each implanted subcutaneously with A549 cells (human non-small cell lung cancer). Once tumors reached a volume of 100-300 mm^3, animals were randomized into 4 groups.
# Three animals were sacrificed at 1, 4, 24, 72 (3 days), 168 (7 days), 216 (9 days), 336 (14 days), 432 (18 days) and 504 hours (21 days) post injection.
# [6] = system: human PC3 (prostate) tumor xenograft; assay: Antitumor activity, single IV dose, PC3 xenograft; details: for Partial Tumor Regression (%) / TGD / TGD (%) / TGI (%) / median survival: single IV
# Procedure: Tumor cell lines were implanted subcutaneously into the flank of nude (immunodeficient) mice and allowed to grow to a fixed size. […] In each case, where possible, doses were selected as providing equivalent levels of toxicity/tolerance. […] Tumor volume was analyzed to determine tumor growth delay (TGD) and partial regression. Mice were removed from the study if they lost 20% of their initial bodyweight or became moribund or if their tumor volume exceeded 2500 mm^3 or the tumor ulcerated. If less than half of the initial cohort of mice remained, that group was no longer graphed or included in further tumor analysis. However, any remaining animals were followed until completion of the in-life observation period and included in a survival analysis.
# [7] = high dose Taxotere® 100 mg/m^2, van Oosterom 1995
structure (smiles),measurement,setting,value
"CC(=O)O[C@@]12CO[C@@H]1C[C@H](O)[C@@]1(C)C(=O)[C@H](O)C3=C(C)[C@@H](OC(=O)[C@H](O)[C@@H](NC(=O)OC(C)(C)C)c4ccccc4)C[C@@](O)([C@@H](OC(=O)c4ccccc4)[C@H]21)C3(C)C [Docetaxel, docetaxel]",growth of PC3 human prostate xenograft (mean tumor volume over time),"[1]; IV administration, FIG. 8A",dose dependently inhibited growth
same,Partial Tumor Regression (%),[1]; docetaxel 5 mg/kg (q4dx4),0%
same,TGD,[1]; docetaxel 5 mg/kg (q4dx4),34 days
same,TGD (%),[1]; docetaxel 5 mg/kg (q4dx4),213%
same,Partial Tumor Regression (%),[1]; docetaxel 10 mg/kg (q4dx4),80%
same,TGD,[1]; docetaxel 10 mg/kg (q4dx4),69 days
same,TGD (%),[1]; docetaxel 10 mg/kg (q4dx4),431%
same,Partial Tumor Regression (%),[1]; docetaxel 30 mg/kg (q21dx2),100%
same,TGD,[1]; docetaxel 30 mg/kg (q21dx2),73 days
same,TGD (%),[1]; docetaxel 30 mg/kg (q21dx2),456%
same,Partial Tumor Regression (%),[1]; docetaxel 60 mg/kg (q21dx2),100%
same,TGD,[1]; docetaxel 60 mg/kg (q21dx2),86 days
same,TGD (%),[1]; docetaxel 60 mg/kg (q21dx2),538%
same,median survival,[1]; 1st dose group listed (5 mg/kg q4dx4 by order of Table 8),62 days
same,median survival,[1]; 2nd dose group listed (10 mg/kg q4dx4 by order of Table 8),88 days
same,median survival,[1]; 3rd dose group listed (30 mg/kg q21dx2 by order of Table 8),93 days
same,median survival,[1]; 4th dose group listed (60 mg/kg q21dx2 by order of Table 8),107 days
same,CL (mean),[2],14.13 L/h/m^2
same,Cmax and AUC with respect to dose,[2],remained linear with respect to dose
same,Vss (mean),[2],458.8 L/m^2
same,dose proportionality for Cmax and AUCinf,[2],demonstrate dose proportionality
same,AUC(0-inf),[2]; 3 mg/m2,225 ng·h/mL
same,AUC(0-inf),[2]; 6 mg/m2,265 ng·h/mL
same,AUC(0-inf),[2]; 12 mg/m2,721 ng·h/mL
same,AUC/Dose,[2]; 12 mg/m2,60.1 m^2 · ng · h/ml/mg
same,CL,[2]; 12 mg/m2,16.92 l/h/m^2
same,Cmax/Dose,[2]; 12 mg/m2,6.22 m^2 · ng/ml/mg
same,Vss,[2]; 12 mg/m2,257.1 l/m^2
same,AUC(0-inf),[2]; 24 mg/m2,4899 ng·h/mL
same,AUC(0-inf),[2]; 48 mg/m2,5297 ng·h/mL
same,AUC/Dose,[2]; 48 mg/m2,110.4 m^2 · ng · h/ml/mg
same,CL,[2]; 48 mg/m2,13.29 l/h/m^2
same,Cmax/Dose,[2]; 48 mg/m2,3.90 m^2 · ng/ml/mg
same,Vss,[2]; 48 mg/m2,705.3 l/m^2
same,AUC(0-inf),[2]; 80 mg/m2,4798 ng·h/mL
same,AUC(0-inf),[2]; 120 mg/m2,28103 ng·h/mL
same,AUC/Dose,[2]; 120 mg/m2,234.2 m^2 · ng · h/ml/mg
same,CL,[2]; 120 mg/m2,7.15 l/h/m^2
same,Cmax/Dose,[2]; 120 mg/m2,5.85 m^2 · ng/ml/mg
same,Vss,[2]; 120 mg/m2,292.5 l/m^2
same,AUC(0-inf),[2]; 160 mg/m2,16518 ng·h/mL
same,AUC/Dose,[2]; 225 mg/m2,150.8 m^2 · ng · h/ml/mg
same,CL,[2]; 225 mg/m2,6.75 l/h/m^2
same,Cmax/Dose,[2]; 225 mg/m2,4.64 m^2 · ng/ml/mg
same,Vss,[2]; 225 mg/m2,413.4 l/m^2
same,AUC/Dose,[2]; 320 mg/m2,117.6 m^2 · ng · h/ml/mg
same,CL,[2]; 320 mg/m2,9.14 l/h/m^2
same,Cmax/Dose,[2]; 320 mg/m2,5.43 m^2 · ng/ml/mg
same,Vss,[2]; 320 mg/m2,404.0 l/m^2
same,reported t1/2,"[3]; Taxotere® (docetaxel), Clarke & Rivory 1999, Prescribing Information",12 h
same,docetaxel Cmax,[3]; [7],2680 ng/mL
same,docetaxel half-life,[3]; [7],10 to 19 h
same,docetaxel Cmax associated with increased incidence of adverse effects,"[3]; plasma, therapeutic window, FIG. 2",above 0.64 μg/ml
same,Cmax,[4]; 3 mg/m2,15.5 ng/mL
same,half-life,"[4]; 3 mg/m2, t1/2",14 h
same,Cmax,[4]; 6 mg/m2,36.3 ng/mL
same,half-life,"[4]; 6 mg/m2, t1/2",9.32 h
same,Cmax,[4]; 12 mg/m2,74.7 ng/mL
same,half-life,"[4]; 12 mg/m2, t1/2",12.3 h
same,Cmax,[4]; 24 mg/m2,149 ng/mL
same,half-life,"[4]; 24 mg/m2, t1/2",55.3 h
same,Cmax,[4]; 48 mg/m2,187 ng/mL
same,half-life,"[4]; 48 mg/m2, t1/2",73.5 h
same,Cmax,[4]; 80 mg/m2,307 ng/mL
same,half-life,"[4]; 80 mg/m2, t1/2",28.8 h
same,Cmax,[4]; 120 mg/m2,702 ng/mL
same,half-life,"[4]; 120 mg/m2, t1/2",45.8 h
same,Cmax,[4]; 160 mg/m2,879 ng/mL
same,half-life,"[4]; 160 mg/m2, t1/2",51.1 h
same,AUC(0-inf),[4]; 190 mg/m2,18800 ng·h/mL
same,Cmax,[4]; 190 mg/m2,1130 ng/mL
same,half-life,"[4]; 190 mg/m2, t1/2",51.9 h
same,AUC(0-inf),[4]; 225 mg/m2,33900 ng·h/mL
same,Cmax,[4]; 225 mg/m2,1040 ng/mL
same,half-life,"[4]; 225 mg/m2, t1/2",61.8 h
same,AUC(0-inf),[4]; 270 mg/m2,26200 ng·h/mL
same,Cmax,[4]; 270 mg/m2,1190 ng/mL
same,half-life,"[4]; 270 mg/m2, t1/2",35.5 h
same,AUC(0-inf),[4]; 320 mg/m2,37600 ng·h/mL
same,Cmax,[4]; 320 mg/m2,1740 ng/mL
same,half-life,"[4]; 320 mg/m2, t1/2",40.8 h
same,AUC(0-inf),[4]; 380 mg/m2,107000 ng·h/mL
same,Cmax,[4]; 380 mg/m2,2900 ng/mL
same,half-life,"[4]; 380 mg/m2, t1/2",67.7 h
same,Kidney AUC of docetaxel,[5]; docetaxel 30 mg/kg,28 µg·h/g
same,Liver AUC of docetaxel,[5]; docetaxel 30 mg/kg,10 µg·h/g
same,Lung AUC of docetaxel,[5]; docetaxel 30 mg/kg,86 µg·h/g
same,Muscle AUC of docetaxel,[5]; docetaxel 30 mg/kg,23 µg·h/g
same,Spleen AUC of docetaxel,[5]; docetaxel 30 mg/kg,77 µg·h/g
same,Tumor AUC of docetaxel,[5]; docetaxel 30 mg/kg,276 µg·h/g
same,time tumor retained measurable levels of docetaxel,[5]; docetaxel 50 mg/kg,216 h
same,Kidney AUC of docetaxel,[5]; docetaxel 50 mg/kg,179 µg·h/g
same,Liver AUC of docetaxel,[5]; docetaxel 50 mg/kg,37 µg·h/g
same,Lung AUC of docetaxel,[5]; docetaxel 50 mg/kg,211 µg·h/g
same,Muscle AUC of docetaxel,[5]; docetaxel 50 mg/kg,64 µg·h/g
same,Spleen AUC of docetaxel,[5]; docetaxel 50 mg/kg,162 µg·h/g
same,Tumor AUC of docetaxel,[5]; docetaxel 50 mg/kg,442 µg·h/g
same,time after which docetaxel concentrations fell below the limits of quantitation in most tissues,"[5]; docetaxel 50 mg/kg, all tissues except tumor",24 h
same,time after which tumor levels of docetaxel fell below the levels of quantitation (1.0 μg/g),[5]; intravenous injection of docetaxel,nine
same,Partial Tumor Regression (%),[6]; docetaxel 9 mg/kg,0%
same,TGD,[6]; docetaxel 9 mg/kg,11
same,TGD (%),[6]; docetaxel 9 mg/kg,42%
same,TGI (%),[6]; docetaxel 9 mg/kg,38%
same,median survival,[6]; docetaxel 9 mg/kg,47 days
same,Partial Tumor Regression (%),[6]; docetaxel 18 mg/kg,33%
same,TGD,[6]; docetaxel 18 mg/kg,41
same,TGD (%),[6]; docetaxel 18 mg/kg,154%
same,TGI (%),[6]; docetaxel 18 mg/kg,91%
same,median survival,[6]; docetaxel 18 mg/kg,81 days
same,Partial Tumor Regression (%),[6]; docetaxel 27 mg/kg,60%
same,TGD,[6]; docetaxel 27 mg/kg,42
same,TGD (%),[6]; docetaxel 27 mg/kg,157%
same,TGI (%),[6]; docetaxel 27 mg/kg,98%
same,median survival,[6]; docetaxel 27 mg/kg,84 days
same,tumor growth,[6]; docetaxel 18 and 27 mg/kg,inhibited tumor growth
same,survival compared to saline,"[6]; docetaxel 18 and 27 mg/kg, all doses of TD-1 liposomes and PEGylated TD-1 liposomes, p<0.05, Mantel-Cox log-rank",increased survival significantly more than saline
